Experimental data taken from patent US12161663B2, “Compositions and methods for targeting cells” (Children's Medical Center Corporation, priority 2018, dated 2024).

How the values were obtained:
BV2 microglia cell line = assay: WST-1 assay of PMA-induced ROS production; type: cell-based
Description: The WST-1 assay allows to measure the ROS produced by cell cultures.

[1] = cited from earlier work
human recombinant TSPO = target: T1, human recombinant TSPO (Homo sapiens, UniProt P30536); assay: Microscale thermophoresis (MST) binding to isolated TSPO; conditions: 5 nM red-tagged hTSPO
T1 construct: purchased LSBio
T1 sequence (P30536 whole entry): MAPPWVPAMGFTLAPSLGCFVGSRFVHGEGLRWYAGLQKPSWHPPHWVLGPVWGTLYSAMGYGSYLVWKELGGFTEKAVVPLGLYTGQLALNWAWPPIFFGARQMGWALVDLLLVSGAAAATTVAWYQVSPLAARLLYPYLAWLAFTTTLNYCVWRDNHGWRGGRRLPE
Description: The tests were performed by using isolated human recombinant TSPO (purchased from LSBio). The lyophilized protein was resuspended in Tris buffer and stored at −80° C. as per manufacturer instructions. Labelling with a deep-red fluorophore was performed by using the Monolith labeling kit-RED from Nanothemper. Briefly, 200 nM of hTSPO was resuspended in Tris/Sarkosyl 0.1% buffer and then mixed with a solution containing anti-His red-fluorophore at 100 nM concentration. After incubation for 30 minutes at RT, the mixture was centrifuged at 15000 g for 10 minutes at 4° C., to pellet any aggregate or precipitate. […] MST was then performed to assess binding.

c1ccc2c(c1)[I+]c1ccccc1-2 [DPI, diphenylene iodonium]
effect on PMA-induced ROS (BV2 microglia cell line; co-incubation with PMA): able to counteract the induction of ROS

CCCCCCCCCCCCCC(=O)O[C@@H]1[C@@H](C)[C@@]2(O)[C@@H](C=C(CO)C[C@]3(O)C(=O)C(C)=C[C@@H]23)[C@@H]2C(C)(C)[C@]12OC(C)=O [PMA, phorbol ester myristate acetate]
increase of ROS production as compared to untreated control (BV2 microglia cell line; 50 ng/ml for 6 hours): 30-40%

COc1cc(C(C)=O)cc(-c2cc(C(C)=O)cc(OC)c2O)c1O [Diapocynin]
concentration inhibiting the PMA-induced increase of ROS (BV2 microglia cell line; PMA 50 ng/ml, nominal concentration for encapsulated drug): ≥ 50 µM
pKa [1]: 7.4

CCC(C)N(C)C(=O)c1cc2ccccc2c(-c2ccccc2Cl)n1 (stereo not drawn) [PK11195]
change in MST profile of tagged hTSPO (human recombinant TSPO; ligand 250 μM): significant change in the MST profile

CN1C(=O)CN=C(c2ccc(Cl)cc2)c2cc(Cl)ccc21 [Ro5-4864]
change in MST profile of tagged hTSPO / binding (human recombinant TSPO; tested at 500 μM): significant change in the MST profile
